The values that follow come from patent publication US20200261391A1, “METHODS OF REDUCING THE RISK OF A CARDIOVASCULAR EVENT IN A STATIN-TREATED SUBJECT BY INCREASING SERUM AND PLASMA EPA AND DPA LEVELS” (Amarin Pharmaceuticals Ireland Limited, priority 2019, published 2020).

“And” between values parts separate entries of the source, which are not always exact repeats. Equal entries are not always repeated.

This test concerns patients with elevated triglyceride levels on statin therapy. The test can be described thus: REDUCE-IT endpoints by EPA/AA ratio tertile in the icosapent ethyl group compared to placebo. The test is classed as in vivo, human. As to the method: This is a study aimed towards determining a relative risk reduction (RRR) between subjects stratified by EPA tertiles in the REDUCE-IT clinical trial described above in Example 1. Samples were obtained from those subjects and total EPA and AA levels in human serum and plasma samples were determined according at least to the methods described in Example 7.
The objective of this study is to assess the effects of administering icosapent ethyl at 4 g per day to patients from the REDUCE-IT trial of Example 1. More specifically, patients from the REDUCE-IT trial of Example 1 were stratified by their EPA levels into one of three tertiles. Following stratification, the objective was to determine if the RRR differs between patients having EPA levels in the three different tertiles. For the data collected as shown in Tables 38-43 and FIGS. 52, 53, and 56-59, the tertiles were established based on data collected from subjects at 1 year, 2 years, and last visit following icosapent ethyl administration compared to placebo. Data are presented as an average of 1 year, 2 year, […], and end of study values. The data was further analyzed use both pooled and unpooled statistically methods.

The mark [1] stands for this setting: EPA/AA >0.373068 to ≤0.727974, on-treatment average.
Where [2] appears, read: EPA/AA >0.727974, on-treatment average.

Turning to `CC/C=C\C/C=C\C/C=C\C/C=C\C/C=C\CCCC(=O)OCC` [icosapent ethyl, eicosapentaenoic acid ethyl ester], where the note is “EPA/AA >0.373068 to ≤0.727974”, the “key secondary endpoint HR, middle EPA/AA tertile vs. placebo” value is on record as 0.61 and the “primary endpoint HR, middle EPA/AA tertile vs. placebo” value was 0.70. Under setting [1], the “HR (95% CI), Key Secondary Endpoint, Middle EPA/AA ratio tertile vs Placebo” value is on record as 0.61 (0.49, 0.75) and the “HR (95% CI), Primary Endpoint, Middle EPA/AA ratio tertile vs Placebo” value is listed as 0.70 (0.59, 0.82). Besides, for the setting “EPA/AA >0.727974”, the “key secondary endpoint HR, highest EPA/AA tertile vs. placebo” value was 0.65 and the “primary endpoint HR, highest EPA/AA tertile vs. placebo” value was found to be 0.67. Further, under setting [2], the “HR (95% CI), Key Secondary Endpoint, Highest EPA/AA ratio tertile vs Placebo” value is 0.65 (0.54, 0.80) and the “HR (95% CI), Primary Endpoint, Highest EPA/AA ratio tertile vs Placebo” value was 0.67 (0.57, 0.79). Where the note is “EPA/AA ≤0.373068”, the “key secondary endpoint HR, lowest EPA/AA tertile vs. placebo” value came to 0.94 and the “primary endpoint HR, lowest EPA/AA tertile vs. placebo” value is recorded as 0.83. Besides, the “HR (95% CI), Key Secondary Endpoint, Lowest EPA/AA ratio tertile vs Placebo” value (EPA/AA ≤0.373068, on-treatment average) is recorded as 0.94 (0.78, 1.13). Moreover, where the note is “FIG. 55, ITT, EPA/AA >0.7403”, the “primary endpoint HR, highest EPA/AA tertile vs. placebo” value was 0.70 and 0.63. In addition, the “primary endpoint HR, lowest EPA/AA tertile vs. placebo” value (FIG. 55, ITT, EPA/AA ≤0.3845) is 0.88.
